Laboratory results as given in PubChem BioAssay (NCI).
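Step 1: Grow cells in 96-well plates. Step 2: Expose to compound for 48 hours at 5 concentrations. Step 3: Interpolate endpoints linearly; if unreached, use highest concentration. TGI denotes the concentration required for complete inhibition of growth.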

How the values were obtained:
Assay in all cases: inhibition of tumour cell growth, NCI panel, 48 h
[1] = test system: SNB-19 CNS
[2] = test system: TK-10 renal
[3] = test system: CCRF-CEM leukemia
[4] = test system: MCF7 breast
[5] = test system: A549 NSCLC
[6] = test system: IGROV1 ovarian
[7] = test system: CAKI-1 renal
[8] = test system: SK-MEL-2 melanoma
[9] = test system: EKVX NSCLC
[10] = test system: MDA-MB-231 breast
[11] = test system: SR leukemia
[12] = test system: U251 CNS
[13] = test system: MDA-N
[14] = test system: PC-3 prostate
[15] = test system: M14 melanoma
[16] = test system: HOP-62 NSCLC
[17] = test system: NCI/ADR-RES ovarian
[18] = test system: MDA-MB-435
[19] = test system: UACC-257 melanoma
[20] = test system: HOP-92 NSCLC
[21] = test system: OVCAR-5 ovarian
[22] = test system: SN12C renal
[23] = test system: COLO 205 colon
[24] = test system: HT29 colon
[25] = test system: HCC-2998 colon
[26] = test system: T-47D breast
[27] = test system: SW-620 colon
[28] = test system: A498 renal
[29] = test system: DU-145 prostate
[30] = test system: NCI-H226 lung
[31] = test system: SK-OV-3 ovarian
[32] = test system: BT-549 breast
[33] = test system: NCI-H460 lung
[34] = test system: OVCAR-3 ovarian
[35] = test system: K-562 leukemia
[36] = test system: SF-295 CNS
[37] = test system: RPMI-8226 leukemia
[38] = test system: SK-MEL-5 melanoma
[39] = test system: KM12 colon
[40] = test system: HCT-15 colon
[41] = test system: 786-0 renal
[42] = test system: ACHN renal
[43] = test system: LOX IMVI melanoma
[44] = test system: UACC-62 melanoma
[45] = test system: OVCAR-8 ovarian
[46] = test system: HS 578T breast
[47] = test system: SNB-75 CNS
[48] = test system: SK-MEL-28 melanoma
[49] = test system: HCT-116 colon
[50] = test system: NCI-H23 lung
[51] = test system: OVCAR-4 ovarian
[52] = test system: MOLT-4 leukemia
[53] = test system: SF-268 CNS
[54] = test system: UO-31 renal
[55] = test system: RXF 393 renal
[56] = test system: HL-60(TB) leukemia
[57] = test system: NCI-H522 lung
[58] = test system: MALME-3M melanoma

CC1(C)OC(=S)N(c2ccccc2)C12C=Cc1cc3ccccc3cc1O2 (stereo unspecified)
TGI [1]: > 100 µM
TGI [2]: > 100 µM
TGI [3]: > 100 µM
TGI [4]: > 100 µM
TGI [5]: > 100 µM
TGI [6]: > 100 µM
TGI [7]: > 100 µM
TGI [8]: > 100 µM
TGI [9]: > 100 µM
TGI [10]: > 100 µM
TGI [11]: > 100 µM
TGI [12]: > 100 µM
TGI [13]: > 100 µM
TGI [14]: > 100 µM
TGI [15]: > 100 µM
TGI [16]: > 100 µM
TGI [17]: > 100 µM
TGI [18]: > 100 µM
TGI [19]: > 100 µM
TGI [20]: > 100 µM
TGI [21]: > 100 µM
TGI [22]: > 100 µM
TGI [23]: > 100 µM
TGI [24]: > 100 µM
TGI [25]: > 100 µM
TGI [26]: > 100 µM
TGI [27]: > 100 µM
TGI [28]: > 100 µM
TGI [29]: > 100 µM
TGI [30]: > 100 µM
TGI [31]: > 100 µM
TGI [32]: > 100 µM
TGI [33]: > 100 µM
TGI [34]: > 100 µM
TGI [35]: > 100 µM
TGI [36]: > 100 µM
TGI [37]: > 100 µM
TGI [38]: > 100 µM
TGI [39]: > 100 µM
TGI [40]: > 100 µM
TGI [41]: > 100 µM
TGI [42]: > 100 µM
TGI [43]: > 100 µM
TGI [44]: > 100 µM
TGI [45]: > 100 µM
TGI [46]: > 100 µM
TGI [47]: > 100 µM
TGI [48]: > 100 µM
TGI [49]: > 100 µM
TGI [50]: > 100 µM
TGI [51]: > 100 µM
TGI [52]: > 100 µM
TGI [53]: > 100 µM
TGI [54]: > 100 µM
TGI [55]: > 100 µM
TGI [56]: > 100 µM

Cc1cc(-c2nc3cc(F)c(F)cc3s2)ccc1N
TGI [1]: > 100 µM
TGI [3]: > 100 µM
TGI [4]: > 100 µM
TGI [5]: > 100 µM
TGI [7]: > 100 µM
TGI [8]: > 100 µM
TGI [9]: > 100 µM
TGI [10]: > 100 µM
TGI [57]: > 100 µM
TGI [11]: > 100 µM
TGI [12]: > 100 µM
TGI [13]: > 100 µM
TGI [14]: > 100 µM
TGI [15]: > 100 µM
TGI [16]: > 71.3 µM
TGI [17]: > 100 µM
TGI [18]: > 100 µM
TGI [19]: > 100 µM
TGI [20]: > 100 µM
TGI [21]: > 100 µM
TGI [22]: > 100 µM
TGI [23]: > 100 µM
TGI [24]: > 100 µM
TGI [25]: > 100 µM
TGI [26]: > 100 µM
TGI [27]: > 100 µM
TGI [28]: > 100 µM
TGI [58]: > 100 µM
TGI [29]: > 100 µM
TGI [31]: > 100 µM
TGI [32]: > 100 µM
TGI [33]: > 100 µM
TGI [34]: > 100 µM
TGI [35]: > 100 µM
TGI [36]: > 82.9 µM
TGI [37]: > 100 µM
TGI [38]: > 100 µM
TGI [39]: > 100 µM
TGI [40]: > 100 µM
TGI [41]: > 100 µM
TGI [42]: > 100 µM
TGI [43]: > 100 µM
TGI [44]: > 100 µM
TGI [45]: > 100 µM
TGI [46]: > 100 µM
TGI [47]: > 92.9 µM
TGI [48]: > 100 µM
TGI [49]: > 100 µM
TGI [50]: > 100 µM
TGI [51]: > 100 µM
TGI [52]: > 100 µM
TGI [53]: > 100 µM
TGI [54]: > 100 µM
TGI [55]: > 100 µM
TGI [56]: > 100 µM
